Assay: xn = mol fraction of the nth substance listed

CCCCN + ClC(Cl)(Cl)Cl
viscosity [mPa·s], 101 kPa
Conditions	293.15 K	298.15 K	303.15 K	308.15 K
x1 = 0.1017	0.924	0.86	0.806	0.76
x1 = 0.1975	0.879	0.818	0.766	0.723
x1 = 0.2974	0.832	0.774	0.726	0.684
x1 = 0.3676	0.799	0.743	0.697	0.657
x1 = 0.4895	0.742	0.69	0.647	0.61
x1 = 0.5536	0.712	0.661	0.621	0.585
x1 = 0.6318	0.675	0.627	0.589	0.555
x1 = 0.6708	0.657	0.61	0.573	0.54
x1 = 0.7779	0.606	0.563	0.53	0.499
x1 = 0.8299	0.582	0.54	0.508	0.479
x1 = 0.912	0.543	0.504	0.475	0.447

CC[N+](=O)[O-] + ClC(Cl)(Cl)Cl
viscosity [mPa·s], 101 kPa
Conditions	x1 = 0.1	x1 = 0.2	x1 = 0.3	x1 = 0.4	x1 = 0.5	x1 = 0.6	x1 = 0.7	x1 = 0.8	x1 = 0.9
303.15 K	0.7767	0.7448	0.7173	0.6971	0.6667	0.6402	0.6152	0.5924	0.5824
308.15 K	0.7408	0.6988	0.6673	0.6509	0.6305	0.6024	0.5769	0.5634	0.5522
318.15 K	0.6485	0.6213	0.597	0.5764	0.5533	0.5327	0.514	0.4996	0.4945

CCCCN + ClC(Cl)Cl
viscosity [mPa·s], 101 kPa
Conditions	293.15 K	298.15 K	303.15 K	308.15 K
x1 = 0.0601	0.59	0.555	0.529	0.516
x1 = 0.1276	0.603	0.567	0.535	0.525
x1 = 0.1585	0.61	0.571	–	0.529
x1 = 0.2301	0.623	0.583	0.554	0.535
x1 = 0.2658	0.631	0.587	0.558	0.538
x1 = 0.336	0.641	0.598	–	0.541
x1 = 0.4049	0.647	0.6	0.567	0.543
x1 = 0.4341	0.649	0.599	0.568	0.541
x1 = 0.4542	0.649	0.6	–	0.54
x1 = 0.4991	0.645	0.598	0.561	0.536
x1 = 0.6045	0.63	0.585	0.548	0.524
x1 = 0.6156	0.627	0.58	–	0.52
x1 = 0.6443	0.621	0.573	0.54	0.516
x1 = 0.7093	0.604	0.559	0.526	0.503
x1 = 0.7325	0.596	0.552	0.52	0.496
x1 = 0.8611	0.556	0.514	0.487	0.46
x1 = 0.9302	0.532	0.492	0.463	0.437

CCCC(=O)OCC + Clc1ccccc1
viscosity [mPa·s], 101.3 kPa
Conditions	308.15 K	318.15 K
x1 = 0.0537	0.646	0.596
x1 = 0.0994	0.637	0.588
x1 = 0.1869	0.622	0.574
x1 = 0.357	0.599	0.552
x1 = 0.4049	0.593	0.548
x1 = 0.4939	0.585	0.541
x1 = 0.5929	0.579	0.535
x1 = 0.6953	0.574	0.532
x1 = 0.7941	0.573	0.532
x1 = 0.9017	0.573	0.534
x1 = 0.9369	0.574	0.535

— the CheMixHub viscosity set
